Read-outs that look alike come from different tables or passages of the source.
Assays:
human plasma = assay: In-vitro anticoagulation on human plasma (APTT kit, coagulation time); conditions: concentration of the compound when the coagulation time (APTT) was prolonged twice
[1] = Metabolic stability in dog liver microsomes; type: in vitro ADME
Method: (§1) The experiment was intended to study the metabolic stability of the compounds of the present invention in dog and mouse liver microsomes.
(§2) A test compound and the compound of Comparative Example 1 were incubated with dog and mouse liver microsomes (the Corning Company. USA) respectively, and a coenzyme NADPH was added to start the reaction. 135 μL of acetonitrile containing an internal standard (IS) was added to wells of a corresponding plate after 0, 5, 15, 30 and 45 minutes respectively to terminate the reaction. After protein precipitation, the solution was centrifuged at 5.594 rpm for 15 minutes, and a supernatant was taken. The supernatant was diluted with water by 1:1 (volume ratio) and then analyzed by a LC-MS/MS method. Ketanserin was used as an internal reference compound, and two copies of Ketanserin were incubated in parallel.
(§3) A peak area ratio of analyte/internal standard (Aanalyte/A1s) was obtained by an instrument, and a remaining percentage (% Control) was calculated by ratios of Aanalyte/A1s in a sample at a non-zero time point and a sample at a zero time point. Ln (% Control) was plotted and fitted linearly with the incubation time. A scavenging constant (k, min^−1) and a scavenging half-life (T1/2, min) of the tested compound were calculated by the following equation.

[2] = Metabolic stability in mouse liver microsomes; type: in vitro ADME
Method: as §1, §2, §3

[3] = Pharmacokinetics in SD rat; type: in vivo; conditions: male, plasma; for AUC(0-t): read-out: Curve area AUC0-t; for half-life: read-out: Half-life period T1/2(h) (converted)
Method: Taking a SD rat as a test animal, the SD rat was administrated with the compound of the present invention by intravenous injection and/or intragastric administration, and drug concentrations in plasma at different times were determined by a IC/MS/MS method to study pharmacokinetic characteristics of the compound of the present invention in the SD rat.
SD rats, male, 195 g to 235 g, 6 weeks old to 8 weeks old, purchased from Shanghai JieSiJie Laboratory Animal Co., Ltd.
Preparation of drug administrated by intravenous injection: a proper amount of compound to be tested was added to a proper amount of DMAC; (30% Soltol HS 15): Saline=10%: 10%: 80% (v/v/v), and shaken in a vortex manner, so as to prepare a final solution with a concentration of 0.5 mg/mL.
Preparation of drug administrated by intragastric administration: a proper amount of compound to be tested was added to a proper amount of DMAC: (30% Soltol HS 15): Saline=10%: 10%: 80% (v/v/v), and shaken in a vortex manner, so as to prepare a final solution with a concentration of 1 mg/mL.
SD rats were divided into an intravenous injection group of the compound to be tested (3 rats/group) and an intragastric administration group (3 rats/group) of the compound to be tested.
Intravenous injection group: the drug was administrated by dorsalis pedis vein injection (according to a dosage of 1 mg/kg and a volume of 2 mL/kg) without fasting.
Intragastric administration group: the drug was administrated by intragastric administration (according to a dosage of 10 mg/kg and a volume of 10 mL/kg) after fasting overnight, and food was taken 4 hours after administration.
Intravenous injection group: about 150 μL of blood was collected into an EDTA-K2 anticoagulant tube through a jugular vein 0.083 hour, 0.25 hour, 0.5 hour, 1 hour, 2 hours, 4 hours, 8 hours and 24 hours after administration.
Intragastric administration group; about 150 μL of blood was collected into an EDTA-K2 anticoagulant tube through a jugular vein 0.25 how, 0.5 hour, 1 hour, 2 hours, 4 hours, 8 hours and 24 hours after administration.
The blood sample was stored in wet ice first, and plasma was centrifugally separated within 15 minutes after sampling (centrifugation conditions: 2,000 g, 4° C., 5 minutes). The collected upper plasma was stored at −70° C. before analysis.
Contents of the compound to be tested in rat plasma after intravenous injection and intragastric administration were determined by LC-MS/MS.

[4] = iv, injection administration 1 mg/kg
[5] = po, intragastric administration 10 mg/kg

Q: Which “CT2” value (human plasma) does the source give for `COCC[C@@H](C(=O)Nc1ccc2nn(C)cc2c1)N1CC(=O)N(c2cc(Cl)ccc2-n2cc(Cl)nn2)CC1=O` [Example 96, (S)-2-(4-(5-chloro-2-(4-chloro-1H-1,2,3-triazol-1-yl)phenyl)-2,5-dioxopiperazin-1-yl)-4-methoxy-N-(2-methyl-2H-indazol-5-yl)butanamide] here?
A: 5.3 µM

Q: And the half-life at 1 μM ([1]; dog liver microsomes 0.5 mg/mL, 1 μM compound, NADPH, read-out: Half-life period (T1/2 min) Dog)?
A: 15.3 h

Q: What about the “Half-life period and stability compared with Comparative Example 1” value ([1]; dog liver microsomes, in words) of the same molecule?
A: longer half-life period and a higher stability

Q: And the half-life at 1 μM ([2]; mouse liver microsomes 0.5 mg/mL, 1 μM compound, NADPH, read-out: Half-life period (T1/2 min) Mouse)?
A: 5.53 h

Q: What about the “Half-life period and stability compared with Comparative Example 1” value ([2]; mouse liver microsomes, in words) of the same molecule?
A: longer half-life period and a higher stability

Q: And the AUC(0-t) [3, 4]?
A: 532 ± 87.8 ng·h/mL

Q: And the half-life [3, 4]?
A: 0.942 ± 0.078 h

Q: And the bioavailability ([3]; po, intragastric 10 mg/kg vs injection 1 mg/kg, read-out: Bioavailability F(%))?
A: 72.5 ± 13.7%

Q: And the Cmax ([3]; po, intragastric administration 10 mg/kg, read-out: Blood concentration Cmax)?
A: 1790 ± 510 ng/mL

Q: What about the AUC(0-t) [3, 5] of the same molecule?
A: 3860 ± 728 ng·h/mL

Q: What about the half-life [3, 5] of the same molecule?
A: 1.54 ± 0.784 h
